The record followed here is patent US5998462A, “5-alkyl indole compounds” (Allelix Biopharmaceuticals Inc., priority 1996, dated 1999).

The target in one experiment is T1, 5-HT1D-like receptor (Oryctolagus cuniculus, UniProt P49144).
T1 construct: Ring segments of the vein (4-5 mm in length) were cut and the endothelium gently removed; from tissue; host or cells: saphenous vein rings, endothelium removed, male New Zealand White rabbits
T1 sequence (P49144 whole entry): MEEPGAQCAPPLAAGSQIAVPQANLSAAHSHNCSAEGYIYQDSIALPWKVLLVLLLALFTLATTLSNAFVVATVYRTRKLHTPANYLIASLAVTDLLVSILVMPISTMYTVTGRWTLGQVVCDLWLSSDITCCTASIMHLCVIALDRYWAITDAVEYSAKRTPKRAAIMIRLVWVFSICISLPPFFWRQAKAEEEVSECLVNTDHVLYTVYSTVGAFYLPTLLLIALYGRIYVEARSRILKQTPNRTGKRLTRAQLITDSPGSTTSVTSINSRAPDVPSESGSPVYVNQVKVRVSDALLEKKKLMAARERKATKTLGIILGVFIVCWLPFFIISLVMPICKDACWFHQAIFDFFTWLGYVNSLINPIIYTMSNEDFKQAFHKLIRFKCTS
Kind of experiment: Agonist assay: contraction of rabbit isolated saphenous vein (5-HT1D-like receptor agonist activity).
Settings: not given
On the set-up: species or system rabbit (New Zealand White). As for the experimental part: The saphenous veins from both the left and right side were cleaned of fat and connective tissue and placed in Krebs solution (118 mM NaCl, 11 mM glucose, 25 mM NaHCO3, 4.7 mM KCl, 2.5 mM CaCl2.2H2 O, 1.2 mM KH2 PO4, and 1.2 mM MgSO4.7H2 O. Ring segments of the vein (4-5 mm in length) were cut and the endothelium gently removed. The segments were mounted in 10 mL baths containing Krebs buffer and were constantly aerated with 95% oxygen/5% carbon dioxide and maintained at 37° C. and pH 7.4 in order to record the isometric tension. A resting tension of 2.5 g was applied and the tissues allowed to equilibrate for 90 minutes, with washing every 15-20 minutes. After the equilibrium period, the rings were depolarized by the addition of two aliquots of KCl (80 mM final concentration) separated by a 20 minute washing period. The tissues were then exposed to prazosin, idazoxan and indomethacin (all 1 μM final concentration) for 30 minutes in order to exclude the actions of α1 - and α2 -adrenergic receptors and prostaglandin receptors respectively. […] Responses were calculated as a percentage of the maximal contraction evoked by 80 mM KCl. Only one compound was tested per preparation.
EC50 represents the concentration of the compound which causes 50% of the maximum contraction effected by it.
In turn, `Cc1ccc2[nH]cc(C[C@H]3CCCN3C)c2c1` [Example 7e, (R)-3-[(N-Methylpyrrolidin-2-yl)methyl]-5-methyl-1H-indole] returned an EC50 of 100 nM.

`CN1CCC[C@@H]1Cc1c[nH]c2ccc(C(C)(C)C)cc12` [Example 7f, (R)-3-[(N-Methylpyrrolidin-2-yl)methyl]-5-tert-butyl-1H-indole] had an EC50 of 52 nM.

Molecule `CC(C)c1ccc2[nH]cc(C[C@H]3CCCN3C)c2c1` [Example 7g, (R)-3-[(N-Methylpyrrolidin-2-yl)methyl]-5-isopropyl-1H-indole] yielded an EC50 of 29 nM.

Regarding `Cc1ccc2[nH]cc(C[C@@H]3CCCN3C)c2c1` [Example 7h, (S)-3-[(N-Methylpyrrolidin-2-yl)methyl]-5-methyl-1H-indole], the EC50 was 1800 nM.

Take `Cc1ccc2[nH]cc(C[C@H]3CCCN3)c2c1` [Example 7j, (R)-5-Methyl-3-[(pyrrolidin-2-yl)methyl]-1H-indole]: the EC50 worked out at 830 nM.

As for `CC(C)c1ccc2[nH]cc(CCN3CCCC3)c2c1` [Example 8a, 5-Isopropyl-3-(2-pyrrolidinylethyl)-1H-indole], the EC50 was found to be 250 nM.

`CC(C)(C)c1ccc2[nH]cc(CCN3CCCC3)c2c1` [Example 8b, 5-Tert-butyl-3-(2-pyrrolidinylethyl)-1H-indole] had an EC50 of 1200 nM.

Regarding `Cc1ccc2[nH]cc(CCN3CCCC3)c2c1` [Example 8c, 5-Methyl-3-(2-pyrrolidinylethyl)-1H-indole], the EC50 was 590 nM.

In turn, `Cc1ccc2[nH]cc(CCN3CC=CC3)c2c1` [Example 8d, 5-Methyl-3-(2-pyrrolinylethyl)-1H-indole] came in with an EC50 of 2900 nM.

`CCc1ccc2[nH]cc(C[C@H]3CCCN3C)c2c1` [Example 11b, (R)-5-Ethyl-3-[(N-methylpyrrolidin-2-yl)methyl]-1 H-indole] yielded an EC50 of 15 nM.

The same experiment, now with this note: rabbit isolated saphenous vein rings, 37° C., pH 7.4; prazosin, idazoxan and indomethacin 1 μM present; read-out: EC50 (concentration of the compound which causes 50% of the maximum contraction effected by it).
`Cc1ccc2[nH]cc(C3CCN(C)C3)c2c1` (stereo not drawn) [Example 7i, 5-Methyl-3-(N-methylpyrrolidin-3-yl)-1H-indole]: the EC50 was 470 nM.

`CCc1ccc2[nH]cc(C3CCN(C)C3)c2c1` (stereo not drawn) [Example 11c, 5-Ethyl-3-(N-methylpyrrolidin-3-yl)-1H-indole]: the EC50 is 900 nM.
